In PubChem BioAssay (NCI):
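All cell lines were grown in 96-well plates and treated with compound for 48 hours. Here, GI50 denotes the concentration required for 50% inhibition of growth. At the TGI there is no net growth.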

Experiments:
Experiment in all cases: NCI tumour cell line growth inhibition, 48 h
DU-145 prostate = test system: DU-145 prostate
CAKI-1 renal = test system: CAKI-1 renal
NCI-H23 lung = test system: NCI-H23 lung
MDA-MB-231 breast = test system: MDA-MB-231 breast
786-0 renal = test system: 786-0 renal
BT-549 breast = test system: BT-549 breast
MALME-3M melanoma = test system: MALME-3M melanoma
U251 CNS = test system: U251 CNS
IGROV1 ovarian = test system: IGROV1 ovarian
SK-OV-3 ovarian = test system: SK-OV-3 ovarian

Cn1c(-c2nonc2N)nc2cnccc21
GI50 (DU-145 prostate): > 25 µM | TGI (DU-145 prostate): > 25 µM | GI50 (CAKI-1 renal): 13.7 µM | TGI (CAKI-1 renal): > 25 µM | GI50 (NCI-H23 lung): > 25 µM | TGI (NCI-H23 lung): > 25 µM | GI50 (MDA-MB-231 breast): > 25 µM | TGI (MDA-MB-231 breast): > 25 µM | GI50 (786-0 renal): > 25 µM | TGI (786-0 renal): > 25 µM | GI50 (BT-549 breast): 17.6 µM | TGI (BT-549 breast): > 25 µM | GI50 (MALME-3M melanoma): > 25 µM | TGI (MALME-3M melanoma): > 25 µM | GI50 (U251 CNS): > 25 µM | TGI (U251 CNS): > 25 µM | GI50 (IGROV1 ovarian): > 25 µM | TGI (IGROV1 ovarian): > 25 µM | GI50 (SK-OV-3 ovarian): > 25 µM | TGI (SK-OV-3 ovarian): > 25 µM

CC1(C)N=C(N)N=C(N)N1c1ccc(CCCCc2ccc(S(=O)(=O)F)cc2Cl)c(Cl)c1
TGI (DU-145 prostate): 90.4 µM | TGI (CAKI-1 renal): 128 µM | TGI (NCI-H23 lung): 200 µM | TGI (MDA-MB-231 breast): 82.3 µM | TGI (786-0 renal): 76.9 µM | TGI (BT-549 breast): 14.5 µM | TGI (MALME-3M melanoma): 33.8 µM | TGI (U251 CNS): 53.2 µM | TGI (IGROV1 ovarian): 106 µM | TGI (SK-OV-3 ovarian): 351 µM

COc1ccccc1NC(=O)c1ccc(/C=C/C(=O)c2nccn2C)cc1
GI50 (DU-145 prostate): 0.504 µM | TGI (DU-145 prostate): 1.09 µM | GI50 (CAKI-1 renal): 0.453 µM | TGI (CAKI-1 renal): 1.32 µM | GI50 (NCI-H23 lung): 0.561 µM | TGI (NCI-H23 lung): 1.5 µM | GI50 (MDA-MB-231 breast): 0.835 µM | TGI (MDA-MB-231 breast): 9.25 µM | GI50 (786-0 renal): 0.542 µM | TGI (786-0 renal): 1.34 µM | GI50 (BT-549 breast): 0.509 µM | TGI (BT-549 breast): 1.19 µM | GI50 (MALME-3M melanoma): 0.616 µM | TGI (MALME-3M melanoma): 1.73 µM | GI50 (U251 CNS): 0.434 µM | TGI (U251 CNS): 1.02 µM | GI50 (IGROV1 ovarian): 0.523 µM | TGI (IGROV1 ovarian): 1.34 µM | GI50 (SK-OV-3 ovarian): 1.06 µM | TGI (SK-OV-3 ovarian): 10.7 µM

N#Cc1cnn2ccn(C3OC(COC(=O)c4ccccc4)C(OC(=O)c4ccccc4)C3OC(=O)c3ccccc3)c12 (stereo not given)
TGI (DU-145 prostate): > 21.5 µM | TGI (CAKI-1 renal): 21.5 µM | TGI (NCI-H23 lung): > 21.5 µM | TGI (MDA-MB-231 breast): > 21.5 µM | TGI (786-0 renal): > 21.5 µM | TGI (BT-549 breast): > 100 µM | TGI (MALME-3M melanoma): > 21.5 µM | TGI (U251 CNS): > 21.5 µM | TGI (IGROV1 ovarian): > 21.5 µM | TGI (SK-OV-3 ovarian): > 21.5 µM

CC[n+]1ccc2c(c1)C(=O)c1nccc3c1c-2nc1ccccc13
GI50 (DU-145 prostate): 1.03 µM | TGI (DU-145 prostate): 4.31 µM | GI50 (CAKI-1 renal): 2.1 µM | TGI (CAKI-1 renal): > 33.3 µM | GI50 (NCI-H23 lung): 0.28 µM | TGI (NCI-H23 lung): 2.64 µM | GI50 (MDA-MB-231 breast): 2.17 µM | TGI (MDA-MB-231 breast): 14 µM | GI50 (786-0 renal): 0.768 µM | TGI (786-0 renal): 2.97 µM | GI50 (BT-549 breast): 0.832 µM | TGI (BT-549 breast): 3.12 µM | GI50 (MALME-3M melanoma): 0.762 µM | TGI (MALME-3M melanoma): 2.03 µM | GI50 (U251 CNS): 0.35 µM | TGI (U251 CNS): 1.28 µM | GI50 (IGROV1 ovarian): 1.76 µM | TGI (IGROV1 ovarian): 10.9 µM | GI50 (SK-OV-3 ovarian): 0.799 µM | TGI (SK-OV-3 ovarian): 4.83 µM

COc1ccc(CN2CCCC(C(=O)c3ccc(C(F)(F)F)cc3)C2)c(O)c1 (stereo not given)
GI50 (DU-145 prostate): 53.9 µM | TGI (DU-145 prostate): > 100 µM | GI50 (CAKI-1 renal): 22.1 µM | TGI (CAKI-1 renal): > 100 µM | GI50 (NCI-H23 lung): 28.5 µM | TGI (NCI-H23 lung): > 100 µM | GI50 (MDA-MB-231 breast): 13.6 µM | TGI (MDA-MB-231 breast): 32 µM | GI50 (786-0 renal): 17.3 µM | TGI (786-0 renal): 40.4 µM | GI50 (BT-549 breast): 24.3 µM | TGI (BT-549 breast): 71.9 µM | GI50 (MALME-3M melanoma): 18.2 µM | TGI (MALME-3M melanoma): 35.5 µM | GI50 (U251 CNS): 26 µM | TGI (U251 CNS): > 100 µM | GI50 (IGROV1 ovarian): 52.6 µM | TGI (IGROV1 ovarian): > 100 µM | GI50 (SK-OV-3 ovarian): 36.1 µM | TGI (SK-OV-3 ovarian): > 100 µM
